The source of these data is patent US20240417729A1, “THERAPEUTIC TREATMENT FOR FRAGILE X-ASSOCIATED DISORDER” (University of Massachusetts, priority 2021, published 2024).

Test [1] deals with FMR1-217 RNA. Nature of the test: RT-qPCR of FMR1-217 and full-length FMR1 in fully methylated FXS1 LCL (GM07365) treated with 5-AzadC and/or ASOs. The format is cell-based, human. The conditions noted are these: 5-AzadC (5-AzaC) 1 μM alone, 7 days, vs DMSO. As to the method: For each cell culture, 30×10^5 cells/mL were added in a final volume of 20 mL medium (RPMI 1640 medium (Sigma-Aldrich), supplemented with 15% FBS and 2.5% L-glutamine at 37° C. with 5% CO2) per T25 flask. 5-Aza-2′-deoxycytidine (5-AzaC) (Sigma-Aldrich, A3656) was added to the cell cultures (final concentration 1 μM) for 7 consecutive days. A 2 mM stock of 5-AzaC was made in DMSO. For each cell line, two independent treatments were performed (n=2). For the no treatment controls for each cell line, DMSO was added to the flasks. For samples with both 5-AzaC and ASO treatment, 80 nM ASOs or vehicle were added on Day 1 and either 5-AzaC or DMSO was added each day from Day 2 up to Day 9 at a final concentration of 1 μM. On Day 9 the cells were collected in 1×Phosphate buffered saline to proceed with RNA extraction or Western blotting.
(§1) One microgram (μg) of total RNA was primed with oligo(dT)20 to generate cDNA with a QuantiTect cDNA synthesis kit (Qiagen, #205311) using random hexamers (Table 3). qPCR was performed using the iTaq™ Universal SYBR® Green Supermix (BIO-RAD #1725122) on a QuantStudio 3 qPCR machine in duplicate.
(§2) Antisense oligonucleotides (ASOs) were dissolved in ultrapure distilled water to a final concentration of 10 μM. Before use, the ASOs were heated to 55° C. for 15 minutes and cooled at room temperature. ASOs were added, individually or in combinations, to LCL cell lines at a final concentration of 80 nM or 160 nM using Lipofectamine RNAIMAX® Transfection Reagent (Thermo Fisher Scientific, 13778030) and incubated at 37° C. with 5% CO2 for 16 hours in reduced serum medium. RPMI 1640 medium (Sigma-Aldrich), supplemented with 15% fetal bovine serum (FBS) was added for a total of 72 hours. The cells were collected after 72 hours of ASO treatment for RNA and protein extraction.
For each cell culture, 30×10^5 cells/mL were added to a final volume of 20 mL medium (RPMI 1640 medium (Sigma-Aldrich) supplemented with 15% fetal bovine serum (FBS) and 2.5% L-glutamine at 37° C. with 5% CO2) per T25 flask. 5-Aza-2′-deoxycytidine (5-AzadC) (Sigma-Aldrich, A3656) was added to the cell cultures (final concentration 1 μM) for 7 consecutive days. A 2 mM stock of 5-AzadC was made in DMSO. For each cell line, two independent treatments were performed (n=2). For the no treatment controls for each cell line, DMSO was added to the flasks. For samples with both 5-AzadC and ASO treatment, 80 nM or 160 nM ASOs or vehicle were added on Day 1 and either 5-AzadC or DMSO was added each day from Day 2 up to Day 9 at a final concentration of 1 μM. On Day 9 the cells were collected in 1× phosphate buffered saline to proceed with RNA extraction or Western blotting. […]

Test [2] deals with FMRP. Nature of the test: Western blot of FMRP relative to GAPDH in FXS1 LCL (GM07365). The format is cell-based, human. The following applies: 5-AzadC 1 μM alone, 7 days. Here is the method:
For each cell culture, 30×10^5 cells/mL were added in a final volume of 20 mL medium (RPMI 1640 medium (Sigma-Aldrich), supplemented with 15% FBS and 2.5% L-glutamine at 37° C. with 5% CO2) per T25 flask. 5-Aza-2′-deoxycytidine (5-AzaC) (Sigma-Aldrich, A3656) was added to the cell cultures (final concentration 1 μM) for 7 consecutive days. A 2 mM stock of 5-AzaC was made in DMSO. For each cell line, two independent treatments were performed (n=2). For the no treatment controls for each cell line, DMSO was added to the flasks. […]
Cells were homogenized at 4° C. in RIPA buffer with incubation on ice for 10 minutes and dissociation by pipetting. […] Protein concentration was determined by BCA reagent. Proteins (10 μg) were diluted in SDS-bromophenol blue reducing buffer with 40 mM DTT and analyzed using western blotting on a 10% SDS-PAGE gel with the following antibodies: FMRP (Abcam, 1:2000) and GAPDH (Cell signaling, 1:2000) diluted in 1×TBST with 5% non-fat milk. […]
Cells were homogenized at 4° C. in RIPA buffer, with incubation on ice for 10 minutes and dissociation by pipetting. […] Protein concentration was determined using BCA reagent. […]
Cells were homogenized at 4° C. in radioimmunoprecipitation assay (RIPA) lysis buffer with incubation on ice for 10 minutes and dissociation by pipetting. […] Protein concentration was determined by BCA reagent.

The test system of test [3] is FMR1-217 RNA. Nature of the test: RT-qPCR of FMR1-217 and full-length FMR1 in partially methylated FXS2 LCL (GM06897). The format is cell-based, human. The conditions noted are these: 5-AzadC 1 μM, 7 days, vs DMSO. As to the method: as §1, §2
For each cell culture, 30×10^5 cells/mL were added to a final volume of 20 mL medium (RPMI 1640 medium (Sigma-Aldrich) supplemented with 15% fetal bovine serum (FBS) and 2.5% L-glutamine at 37° C. with 5% CO2) per T25 flask. 5-Aza-2′-deoxycytidine (5-AzadC) (Sigma-Aldrich, A3656) was added to the cell cultures (final concentration 1 μM) for 7 consecutive days. A 2 mM stock of 5-AzadC was made in DMSO. […]

Test [4] deals with FMRP. Nature of the test: Western blot of FMRP relative to GAPDH in FXS2 LCL (GM06897). The format is cell-based, human. The following applies: 5-AzadC 1 μM, 7 days. Here is the method:
Antisense oligonucleotides (ASOs) were dissolved in ultrapure distilled water to a final concentration of 10 μM. Before use, the ASOs were heated to 55° C. for 15 minutes and cooled at room temperature. ASOs were added, individually or in combinations, to LCL cell lines at a final concentration of 80 nM or 160 nM using Lipofectamine RNAIMAX® Transfection Reagent (Thermo Fisher Scientific, 13778030) and incubated at 37° C. with 5% CO2 for 16 hours in reduced serum medium. RPMI 1640 medium (Sigma-Aldrich), supplemented with 15% fetal bovine serum (FBS) was added for a total of 72 hours. […]
Cells were homogenized at 4° C. in RIPA buffer, with incubation on ice for 10 minutes and dissociation by pipetting. The extract was centrifuged at 13,200 rpm for 10 minutes at 4° C., and the supernatant collected. Protein concentration was determined using BCA reagent. Proteins (10 μg) were diluted in SDS-bromophenol blue reducing buffer with 40 mM DTT and analyzed using western blotting with the following antibodies: FMRP (Millipore, mAb2160, 1: 1,000), FMRP (Abcam, ab17722, 1:1,000) and GAPDH (14C10, Cell Signaling Technology, mAb 2118, 1:2,000), diluted in 1×TBST with 5% non-fat milk. […]
Cells were homogenized at 4° C. in radioimmunoprecipitation assay (RIPA) lysis buffer with incubation on ice for 10 minutes and dissociation by pipetting. […] Protein concentration was determined by BCA reagent. […]

In test [5] the test system is FMRP. Nature of the test: Western blot of FMRP in FXS dermal fibroblasts (GM05131B). The format is cell-based, human. The conditions noted are these: 5-AzadC alone. As to the method: Cells were homogenized at 4° C. in RIPA buffer, with incubation on ice for 10 minutes and dissociation by pipetting. The extract was centrifuged at 13,200 rpm for 10 minutes at 4° C., and the supernatant collected. Protein concentration was determined using BCA reagent. Proteins (10 μg) were diluted in SDS-bromophenol blue reducing buffer with 40 mM DTT and analyzed using western blotting with the following antibodies: FMRP (Millipore, mAb2160, 1: 1,000), FMRP (Abcam, ab17722, 1:1,000) and GAPDH (14C10, Cell Signaling Technology, mAb 2118, 1:2,000), diluted in 1×TBST with 5% non-fat milk. Membranes were washed three times for 10 minutes with 1×TBST and incubated with anti-rabbit or anti-mouse secondary antibodies (Jackson, 1:10,000) at room temperature for 1 hour. Membranes were washed three times for 10 minutes with 1×TBST, developed with ECL-Plus (Piece), and scanned with GE Amersham Imager.
Cells were homogenized at 4° C. in radioimmunoprecipitation assay (RIPA) lysis buffer with incubation on ice for 10 minutes and dissociation by pipetting. The extract was centrifuged at 13,200 rpm for 10 minutes at 4° C., and the supernatant was collected. Protein concentration was determined by BCA reagent.

Test [6] concerns FMR1-217 RNA. Nature of the test: RT-qPCR of FMR1-217 and FMR1 in FXS lung fibroblasts (GM07072) treated with 5-AzadC and ASOs 713/714. The format is cell-based, human. The following applies: fully methylated FMR1, 5-AzadC in the absence of ASOs.
Procedure: FIG. 15D Lung fibroblasts derived from a FXS individual (GM07072, Coriell Institute) were cultured with 5-AzadC for 8 days and then treated with ASOs 713/714 (100 nM each) for 72 hours prior to RNA and protein extraction. RT-qPCR analysis of FMR1-217, FMR1, and GAPDH RNAs in lung fibroblasts treated with DMSO, ASOs 713/714, 5-AzadC, or the ASOs 713/714 plus 5-AzadC. The amounts of FMR1-217 and FMR1 were made relative to GAPDH. (*p<0.05, **p<0.01, ***p<0.001, one way ANOVA with multiple comparisons test).
FIG. 21D Lung fibroblasts derived from an FXS individual (GM07072, Coriell Institute) were cultured with 5-AzadC for 8 days and then treated with ASOs 713/714 (100 nM each) for 72 hours prior to RNA and protein extraction. RT-qPCR analysis of FMR1-217, FMR1, and GAPDH RNAs in lung fibroblasts treated with DMSO, ASOs 713/714, 5-AzadC, or the ASOs 713/714 plus 5-AzadC. The amounts of FMR1-217 and FMR1 were made relative to GAPDH (*P<0.05, **P<0.01, ***P<0.001, one-way ANOVA with multiple comparisons test).
Test [7] deals with FMR1 transcripts (total, FMR1-205, FMR1-217). The conditions noted are these: FXS iPSC-derived NSCs, reanalyzed from RNA-seq data of Vershkov et al., cited from earlier work.
Test [8] relates to FMR1 RNA. The following applies: FXS LCLs; 36 days of 5-AzadC; previous study; cited from earlier work.

Values joined by “and” are separate entries in the source; they are usually repeats but may differ in a detail not shown here. Identical values can stand only once. “Also recorded” adds a separate entry of the source. Like-named read-outs stand apart in the source and are kept apart here.

With `Nc1ncn([C@H]2C[C@H](O)[C@@H](CO)O2)c(=O)n1` [5-AzadC, 5-Aza-2′-deoxycytidine], in test [1], the “FMR1-217 (iso12) RNA level” value is “synthesis of both FMR1 and FMR1-217 RNAs; also recorded: increased FMR1-217 RNA levels; also recorded: significant increases; also recorded: expected increase; also recorded: resulted in the expression of FMR1-217 and full-length FMR1”; the “full-length FMR1 (iso1) RNA level” value is “synthesis of both FMR1 and FMR1-217 RNAs; also recorded: significant increases; also recorded: expected increase; also recorded: resulted in the expression of FMR1-217 and full-length FMR1”. Besides, in test [1] (listed as 5-AzaC), the “FMR1-217 (iso12) RNA level” value is “increase in FMR1 iso12” and the “full-length FMR1 (iso1) RNA level” value is “increase in FMR1 iso1”. The “FMRP level (western blot, relative to GAPDH)” value in test [2] is listed as “little or no FMRP; also recorded: increased FMR1-217 RNA levels but not FMRP; also recorded: In neither cell line did 5-AzadC treatment induce a significant increase in FMRP; also recorded: did not affect FMRP levels; also recorded: unaffected; also recorded: little FMRP; also recorded: modest increase; also recorded: modestly affected”. Also, in test [3], the “full-length FMR1 RNA level” value is “increase of only full-length FMR1 RNA”. Further, the “FMRP level (western blot, relative to GAPDH)” value in test [4] is “In neither cell line did 5-AzadC treatment induce a significant increase in FMRP”. Besides, the “FMRP level (western blot)” value in test [5] was “no effect”. Moreover, in test [6], the “FMR1-217 RNA level” value is listed as “increased” and the “FMR1 RNA level” value is “increased”. For the same compound, in test [7] (biologic duplicate), the “FMR1 (total) reads” value was 9.9 TPM and 6.1 TPM; the FMR1-217 reads is 6.9 TPM and 3.9 TPM. Further, in test [7], the “FMR1-217 RNA-seq reads (in words)” value is “clearly evident; also recorded: strong FMR1-217 expression; also recorded: reads corresponding to FMR1-217; also recorded: detected only in the 5-AzadC-treated samples”; the “total FMR1 and FMR1-205 expression (in words)” value was “strong total FMR1 and FMR1-205 expression; also recorded: expressed”. Also, the “FMR1-217 RNA-seq reads (in words)” value in test [7] (listed as 5-azadC) is “detected only in the 5-azadC-treated samples”. For the same compound, in test [8], the “FMRP level compared to that in TD cells” value is given as “even lower level” and the “restoration of FMR1 RNA” value is listed as “up to 40%”.
